Data from patent publication US4885239A, “Rapid differentiation of bacteria using polyether antibiotics” (Eastman Kodak Company, priority 1986, dated 1989).

What was measured:
[1] = system: viable gram-positive and gram-negative bacteria; experiment: differentiation of viable gram-positive and gram-negative bacteria (outcome in words); format: cell-based; settings: for differentiation of gram-positive and gram-negative bacteria: RIND XXXV, Examples 8 and 9; for differentiating gram-positive and gram-negative bacteria: RIND VII, Examples 2-3
Method: (§1) gram-negative bacteria Enterobacter cloacae (ATCC 23355), Escherichia coli (ATCC 25922), Proteus vulgaris (ATCC 13315), Klebsiella pneumoniae (ATCC 13883) and Pseudomonas aeruginosa (ATCC 27853), and gram-positive bacteria Staphylococcus aureus (ATCC 25923) and Streptococcus pyogenes (ATCC 19615), and brain heart infusion (BHI) broth from Difco Laboratories (Detroit, Mich.),
(§2) Bacterial suspensions were prepared by growing the cells in BHI to stationary phase overnight at 37° C. P. aeruginosa was grown with agitation. About 40 ml of overnight cultures were centrifuged, decanted and washed once with 0.05 molar potassium phosphate buffer or 0.05 molar N-2-hydroxyethylpiperazine-N'-2-ethanesulfonic acid (HEPES) buffer, pH 7.8, and resuspended in buffer.
TERGITOL 7 anionic surfactant was used to differentiate viable bacteria according to the prior art method. Various concentrations of TERGITOL 7 surfactant were mixed with a 10% glucose solution (50 μl), 3-(4,5-dimethyl-2-thiazolyl)-2,5-diphenyl-2N-tetrazolium bromide (MTT) in methanol (25 μl at 5 mg/ml) or a RIND VII dispersion (1.5 ml) and phenazine methosulfate ETA (25 μl at 3 mg/ml methanol). The volume of each test solution was brought to 3 ml with potassium phosphate buffer. A cell suspension (100 μl at about 10^8 cells/ml) was then added. The solutions were incubated at 37° C. for 15 and 30 minutes in the presence of either E. coli, a gram (-) bacterium, or S. aureus, a gram (+) bacterium. The amount of dye formed was then determined visually and graded as follows: 0 indicates no dye formation, +/- indicates faint dye formation, 1+ indicates light dye formation, 2+ indicates moderate dye formation, 3+ indicates strong dye formation, and 4+ indicates very strong dye formation.
Calimycin, a polyether antibiotic, was similarly used with RIND VII in the differentiation of bacteria. Assays were performed as described above, except that 25 μl of 1 molar calcium chloride solution was added to each test solution and the P. aeruginosa response was measured in the presence of 10% yeast extract as the carbon source instead of glucose. The final concentration of calimycin in each test was 10^-3 molar.
(§3) The test solutions were prepared by adding the following, in order: 1.2 ml HEPES, 50 μl glucose solution, 1.5 ml RIND VII dispersion, 100 μl antibiotic solution, 100 μl cell suspension and 25 μl ETA solution. Cell control solutions contained all reagents except antibiotics. Background Controls consisted of both buffer and solution controls. The buffer control contained all reagents except antibiotics and cells. The solution control contained all reagents except cells.
(§4) Optical density readings (OD) were made at 635 nm at 0 minutes and after incubation at 37° C. for 30 minutes for all solutions, and the change (ΔOD) was determined. Table V below lists the results expressed as corrected percent inhibition of the reduction of RIND VII. The corrected percent inhibition was calculated by dividing the difference between ΔOD obtained from a Control test without antibiotic and the ΔOD of the test, by the ΔOD of the Control without antibiotic. All readings were corrected by subtracting readings of the appropriate background control.
Relative fluorescence was measured using a standard spectrophotometer modified to read at excitation of 540 nm and emission of 620 nm. The change (Δ) in relative fluorescence was determined after 30 minutes at 37° C. for several concentration levels of antibiotic.
Optical density measurements were obtained at 540 nm using a standard spectrophotometer and the change in optical density (ΔOD) was determined after 30 minutes at 37° C. The resulting data are shown in Table VII below for several concentrations of antibiotic. It is clear from the data that the composition of this example was useful for differentiating bacteria. […]

[2] = system: S. aureus (gram +); experiment: inhibition of the reduction of RIND XXXV (Examples 8 and 9), S. aureus; format: cell-based, Staphylococcus aureus (ATCC 25923); settings: 50 μl of 10 mg/ml antibiotic premixed with 1 ml cells (septamycin with calcium chloride), 30 minutes, 37° C., average of two replicates
Method: as §1
(§5) Bacterial suspensions were prepared by growing the cells in BHI to stationary phase overnight at 37° C. P. aeruginosa was grown with agitation. […]
(§6) Optical density readings (OD) were made at 635 nm at 0 minutes and after incubation at 37° C. for 30 minutes for all solutions, and the change (ΔOD) was determined. Table V below lists the results expressed as corrected percent inhibition of the reduction of RIND VII. The corrected percent inhibition was calculated by dividing the difference between ΔOD obtained from a Control test without antibiotic and the ΔOD of the test, by the ΔOD of the Control without antibiotic. All readings were corrected by subtracting readings of the appropriate background control. […]
(§7) Relative fluorescence was measured at an emission of 620 nm after excitation at 540 nm using a […] microfluor Reader, and the change in fluorescence (Δ relative fluorescence) after 30 minutes at 37° C. was determined as the average of two replicates.

[3] = system: E. coli (gram -); experiment: inhibition of the reduction of RIND XXXV (Examples 8 and 9), E. coli; format: cell-based, Escherichia coli (ATCC 25922); settings: 50 μl of 10 mg/ml antibiotic premixed with 1 ml cells (septamycin with calcium chloride), 30 minutes, 37° C., average of two replicates
Method: as §1, §5, §6, §7

[4] = system: S. aureus (gram +); experiment: inhibition of the reduction of RIND VII (solution assay, Examples 2-3), S. aureus; format: cell-based, Staphylococcus aureus (ATCC 25923); settings: 635 nm, 30 minutes, 37° C.
Method: as §1, §2
(§8) A dispersion containing a RIND compound was prepared by dissolving RIND VII from Table II above in N,N-dimethylformamide (DMF) at 16 mg compound per ml of solvent. An aliquot (250 μl) of the resulting solution was added to 500 μl of TRITON X-100 surfactant. This mixture was then added dropwise with stirring to 25 ml of 0.05 molar HEPES buffer. A solution containing a water-compatible RIND compound XXXV was prepared by dissolving the compound (16 mg/ml) in N,N-dimethylformamide which had been acidified with a 0.1% sulfuric acid solution.
(§9) The following materials were used in these examples: stock dispersion of RIND VII as described above, glucose (10% in water), trimethyl-1,4-benzoquinone ETA (1.5 mg/ml methanol), each antibiotic at 1, 5, and 10 mg/ml methanol. Microbial cells were grown as described above. The final approximate cell concentrations were: 1.4×10^7 cells/ml for E. coli and 2.4×10^7 cells/ml for S. aureus.
as §3, §4

[5] = system: E. coli (gram -); experiment: inhibition of the reduction of RIND VII (solution assay, Examples 2-3), E. coli; format: cell-based, Escherichia coli (ATCC 25922); settings: 635 nm, 30 minutes, 37° C.
Method: as §1, §2, §8, §9, §3, §4

[6] = E1/2 (reduction potential) of the quinone nucleus of RIND compounds; format: physicochemical; settings: quinone nucleus with hydrogen in place of the side chain
From the text: Examples of such nuclei are presented below. […] Preferably, the E1/2 is from about +100 mV to about +400 mV as measured in water, or from about -650 to about -300 mV as measured in acetonitrile. […] Further details of measuring the E1/2 are described below prior to Table I. The desired E1/2 is achieved by appropriate electron withdrawing groups on the CAR--nucleus, or by a strained fused ring attached to the nucleus or a combination of both.
A standard calomel electrode was used as a standard. Some E1/2 values (denoted by *) were measured in acetonitrile using a saturated calomel electrode as a standard. E1/2 values not available are denoted by "NA".

[7] = aqueous emulsion, DMF, TRITON X-100, sodium phosphate buffer pH 7, calomel electrode
[8] = (*) in acetonitrile, saturated calomel electrode

COC1CCC(OC2C(C)C(O)(C(C)C(=O)O)OC(CC3CC(OC)C(C)C4(O3)OC(C)(C3CCC(C5CCC(C6OC(C)(O)C(C)C(OC)C6C)O5)O3)C(OC)C4C)C2(C)OC)OC1C (stereo not drawn) [Antibiotic A204]
differentiation of gram-positive and gram-negative bacteria [1]: useful for differentiation of gram-positive and gram-negative bacteria | Corrected Percent Inhibition [2]: 35.8% | Corrected Percent Inhibition [3]: 3.6%

CC[C@@H](C(=O)[C@@H](C)[C@@H](O)[C@H](C)CCc1ccc(C)c(O)c1C(=O)O)[C@H]1O[C@](CC)([C@H]2CC[C@](O)(CC)[C@H](C)O2)C[C@@H]1C [Lasalocid, lasalocid]
Corrected Percent Inhibition ([4]; antibiotic 0.033 mg/ml): 35.2% | Corrected Percent Inhibition ([4]; antibiotic 0.166 mg/ml): 50.9% | Corrected Percent Inhibition ([4]; antibiotic 0.333 mg/ml): 60.1% | differentiating gram-positive and gram-negative bacteria [1]: effective in differentiating gram-positive and gram-negative bacteria | Corrected Percent Inhibition ([5]; antibiotic 0.033 mg/ml): 6.6% | Corrected Percent Inhibition ([5]; antibiotic 0.166 mg/ml): 10.5% | Corrected Percent Inhibition ([5]; antibiotic 0.333 mg/ml): 25.5%

CC[C@@]1([C@@H]2O[C@@H]([C@H]3O[C@@](O)(CO)[C@H](C)C[C@@H]3C)C[C@@H]2C)CC[C@H]([C@]2(C)CC[C@]3(C[C@H](O)[C@@H](C)[C@@H]([C@@H](C)[C@@H](OC)[C@H](C)C(=O)O)O3)O2)O1 [Monensin, monensin A]
Corrected Percent Inhibition ([4]; antibiotic 0.033 mg/ml): 34.4% | Corrected Percent Inhibition ([4]; antibiotic 0.166 mg/ml): 43.0% | Corrected Percent Inhibition ([4]; antibiotic 0.333 mg/ml): 42.0% | differentiating gram-positive and gram-negative bacteria [1]: effective in differentiating gram-positive and gram-negative bacteria | Corrected Percent Inhibition ([5]; antibiotic 0.033 mg/ml): 5.1% | Corrected Percent Inhibition ([5]; antibiotic 0.166 mg/ml): No inhibition | Corrected Percent Inhibition ([5]; antibiotic 0.333 mg/ml): No inhibition

CC(C1=C(CN(C)C(=O)Oc2ccc(N=Nc3ccc([N+](=O)[O-])cc3S(C)(=O)=O)c3c(NS(=O)(=O)c4cccc(S(N)(=O)=O)c4)cccc23)C(=O)C(C(C)c2ccc([N+](=O)[O-])cc2)=C(CN(C)C(=O)Oc2ccc(N=Nc3ccc([N+](=O)[O-])cc3S(C)(=O)=O)c3c(NS(=O)(=O)c4cccc(S(N)(=O)=O)c4)cccc23)C1=O)c1ccc([N+](=O)[O-])cc1 (stereo not drawn) [RIND II]
E1/2 [6, 7]: +236 mV

CN(CC1=C(c2ccccc2)C(=O)C(CN(C)C(=O)Oc2ccc(N=Nc3ccc([N+](=O)[O-])cc3S(C)(=O)=O)c3c(NS(=O)(=O)c4cccc(S(N)(=O)=O)c4)cccc23)=C(c2ccccc2)C1=O)C(=O)Oc1ccc(N=Nc2ccc([N+](=O)[O-])cc2S(C)(=O)=O)c2c(NS(=O)(=O)c3cccc(S(N)(=O)=O)c3)cccc12 [RIND IV]
E1/2 [6, 8]: -460 mV

CCCCCCCCCCNS(=O)(=O)c1ccc(C(C)C2=C(CN(C)C(=O)Oc3ccc(N=Nc4ccc([N+](=O)[O-])cc4S(C)(=O)=O)c4c(NS(=O)(=O)c5cccc(S(N)(=O)=O)c5)cccc34)C(=O)C(C(C)c3ccc(S(=O)(=O)NCCCCCCCCCC)cc3)=C(CN(C)C(=O)Oc3ccc(N=Nc4ccc([N+](=O)[O-])cc4S(C)(=O)=O)c4c(NS(=O)(=O)c5cccc(S(N)(=O)=O)c5)cccc34)C2=O)cc1 (stereo not drawn) [RIND I]
E1/2 [6, 8]: -528 mV

CN(CC1=C(c2ccc(C#N)cc2)C(=O)C2=C(C1=O)C1C=CC2CC1)C(=O)Oc1ccc(N=Nc2ccc([N+](=O)[O-])cc2S(C)(=O)=O)c2c(NS(=O)(=O)c3cccc(S(N)(=O)=O)c3)cccc12 (stereo not drawn) [RIND XVII]
E1/2 [6, 7]: +240 mV

CCCCCCCCCCNS(=O)(=O)c1ccc(C(C)C2=C(CN(C)C(=O)Oc3ccc4c(C)cc(=O)oc4c3)C(=O)C(C(C)c3ccc(S(=O)(=O)NCCCCCCCCCC)cc3)=C(CN(C)C(=O)Oc3ccc4c(C)cc(=O)oc4c3)C2=O)cc1 (stereo not drawn) [RIND XXII]
E1/2 [6, 8]: -528 mV

CCCCCCCCCCNS(=O)(=O)c1ccc(C(C)C2=C(CN(C)C(=O)Oc3ccc(N=Nc4cccc(S(N)(=O)=O)c4)c4c(NS(C)(=O)=O)cccc34)C(=O)C(C(C)c3ccc(S(=O)(=O)NCCCCCCCCCC)cc3)=C(CN(C)C(=O)Oc3ccc(N=Nc4cccc(S(N)(=O)=O)c4)c4c(NS(C)(=O)=O)cccc34)C2=O)cc1 (stereo not drawn) [RIND XXI]
E1/2 [6, 8]: -528 mV

CC1=C(C)C(=O)C(c2ccccc2)=C(CN(C)C(=O)Oc2ccc(N=Nc3ccc([N+](=O)[O-])cc3S(C)(=O)=O)c3c(NS(=O)(=O)c4cccc(S(N)(=O)=O)c4)cccc23)C1=O [RIND XXXVI]
E1/2 [6, 7]: +144 mV

CO[C@H]1C[C@@H](C[C@H]2O[C@@](O)([C@H](C)C(=O)O)[C@H](C)[C@H](OC)[C@@]2(C)O[C@H]2CC[C@@H](OC)[C@H](C)O2)O[C@]2(O[C@@](C)([C@@H]3CC[C@H]([C@H]4CC[C@H]([C@H]5O[C@](C)(O)[C@H](C)C[C@@H]5C)O4)O3)[C@H](OC)[C@H]2C)[C@@H]1C [Septamycin, septamycin]
differentiation of gram-positive and gram-negative bacteria [1]: useful for differentiation of gram-positive and gram-negative bacteria | Corrected Percent Inhibition [2]: 74.9% | Corrected Percent Inhibition [3]: 52.3%
